Assay results reported in patent publication US12239643B2, “Therapeutic agent for inflammatory diseases, autoimmune diseases, fibrotic diseases, and cancer diseases” (MEIJI SEIKA PHARMA CO., LTD., priority 2018, dated 2025).

Tested on: PDE4
Assay: Evaluation of PDE4 inhibitory activity, scintillation proximity assay
Type: biochemical
Conditions: scintillation proximity assay; read-out: PDE4 Inhibitory Activity (Evaluation 1; concentration for the inhibition rate of 50%)
Outline: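 IC50 was derived from inhibition curves, referenced to an enzyme-free blank and a DMSO-only control. Compound, PDE4 preparation and tritiated cAMP reacted 120 min at RT in Tris-HCl buffer (pH 7.4) with MgCl2, EGTA and BSA; YSi-SPA beads with ZnSO4 bound product before scintillation counting.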

CC(C)(O)C(F)(F)OC(c1ccc(-c2nccs2)c2oc(N3CC4CC(C3)N4)nc12)C(F)(F)F (centres unmarked) [Example 257, 1-(1-(2-(3,6-Diazabicyclo[3.1.1]heptan-3-yl)-7-(thiazol-2-yl)benzo[d]oxazol-4-yl)-2,2,2-trifluoroethoxy)-1,1-difluoro-2-methylpropan-2-ol]
IC50: < 100 nM

OCC(F)(F)OC(c1ccc(-c2nccs2)c2oc(N3CC4CC(C3)N4)nc12)C(F)(F)F (centres unmarked) [Example 258, 2-(1-(2-(3,6-Diazabicyclo[3.1.1]heptan-3-yl)-7-(thiazol-2-yl)benzo[d]oxazol-4-yl)-2,2,2-trifluoroethoxy)-2,2-difluoroethan-1-ol]
IC50: < 100 nM

C[C@H](O)COc1ccc(-c2nccs2)c2oc(N3CC4CC(C3)N4)nc12 [Example 260, (2S)-1-((2-(3,6-diazabicyclo[3.1.1]heptan-3-yl)-7-(thiazol-2-yl)benzo[d]oxazol-4-yl)oxy)propan-2-ol]
IC50: < 100 nM

CC(O)COC(c1ccc(-c2nccs2)c2oc(N3CC4CC(C3)N4)nc12)C(F)(F)F (centres unmarked) [Example 261, 1-(1-(2-(3,6-Diazabicyclo[3.1.1]heptan-3-yl)-7-(thiazol-2-yl)benzo[d]oxazol-4-yl)-2,2,2-trifluoroethoxy)propan-2-ol]
IC50: < 100 nM

c1csc(-c2ccc(OC3CCCOC3)c3nc(N4CC5CCC(C4)N5)oc23)n1 (centres unmarked) [Example 262, 2-(3,8-Diazabicyclo[3.2.1]octan-3-yl)-4-((tetrahydro-2H-pyran-3-yl)oxy)-7-(thiazol-2-yl)benzo[d]oxazole]
IC50: < 100 nM

FC(F)Oc1ccc(-c2nccs2)c2oc(N3CC4CCC(C3)N4)nc12 [Example 263, 2-(3,8-Diazabicyclo[3.2.1]octan-3-yl)-4-(difluoromethoxy)-7-(thiazol-2-yl)benzo[d]oxazole]
IC50: < 100 nM

CC(C)(O)COc1ccc(-c2nccs2)c2oc(N3CC4CCC(C3)N4)nc12 [Example 264, 1-((2-(3,8-Diazabicyclo[3.2.1]octan-3-yl)-7-(thiazol-2-yl)benzo[d]oxazol-4-yl)oxy)-2-methylpropan-2-ol]
IC50: < 100 nM

CC(O)C(F)(F)OC(c1ccc(-c2nccs2)c2oc(N3CC4CC(C3)N4)nc12)C(F)(F)F (centres unmarked) [Example 265, 1-(1-(2-(3,6-Diazabicyclo[3.1.1]heptan-3-yl)-7-(thiazol-2-yl)benzo[d]oxazol-4-yl)-2,2,2-trifluoroethoxy)-1,1-difluoropropan-2-ol]
IC50: < 100 nM

N#CC1CC(Oc2ccc(-c3nccs3)c3oc(N4CC5CC(C4)N5)nc23)C1 (centres unmarked) [Example 266, 3-((2-(3,6-Diazabicyclo[3.1.1]heptan-3-yl)-7-(thiazol-2-yl)benzo[d]oxazol-4-yl)oxy)cyclobutane-1-carbonitrile]
IC50: < 100 nM

CC(C)(O)C1CC(Oc2ccc(-c3nccs3)c3oc(N4CC5CC(C4)N5)nc23)C1 (centres unmarked) [Example 267, 2-(3-((2-(3,6-Diazabicyclo[3.1.1]heptan-3-yl)-7-(thiazol-2-yl)benzo[d]oxazol-4-yl)oxy)cyclobutyl)propan-2-ol]
IC50: < 100 nM

CC(C)(CO)Oc1ccc(-c2nccs2)c2oc(N3CC4CC(C3)N4)nc12 [Example 268, 2-((2-(3,6-Diazabicyclo[3.1.1]heptan-3-yl)-7-(thiazol-2-yl)benzo[d]oxazol-4-yl)oxy)-2-methylpropan-1-ol]
IC50: < 100 nM

OC1(c2cc(-c3nccs3)c3oc(N4CC5CC(C4)N5)nc3c2OC(F)(F)F)CC1 [Example 269, 1-(2-(3,6-Diazabicyclo[3.1.1]heptan-3-yl)-7-(thiazol-2-yl)-4-(trifluoromethoxy)benzo[d]oxazol-5-yl)cyclopropan-1-ol]
IC50: < 100 nM

CC(O)(c1ccc(-c2nccs2)c2oc(N3CC4CC(C3)N4)nc12)C(F)(F)F (centres unmarked) [Example 270, 2-(2-(3,6-Diazabicyclo[3.1.1]heptan-3-yl)-7-(thiazol-2-yl)benzo[d]oxazol-4-yl)-1,1,1-trifluoropropan-2-ol]
IC50: < 100 nM

CC(O)(c1ccc(-c2nccs2)c2oc(N3CC4CC(C3)N4)nc12)C(F)(F)F (centres unmarked) [Example 271, 2-(2-(3,6-Diazabicyclo[3.1.1]heptan-3-yl)-7-(thiazol-2-yl)benzo[d]oxazol-4-yl)-1,1,1-trifluoropropan-2-ol]
IC50: < 100 nM
